Test results: US9358244B2, “Solid dosage forms of oleyl phosphocholine” (Oblita Therapeutics BVBA, priority 2010, dated 2016)
Values after ≈ are worked out from the molar mass of the structure shown.

Assays:
[1] = Tolerance in treated naturally infected dogs; type: in vivo; conditions: 6 dogs, 4 mg/kg/day orally 14 days
Experimental: (§1) The dose of 4 mg/kg/day oleylphosphocholine was used to treat orally during 14 days a cohort of 6 dogs from a shelter naturally infected with L. infantum and classified as clinically sick. The dogs were assessed at the clinical (physical examination and clinic-pathological abnormalities) and parasitological levels at the beginning of the treatment (day 0) and on day 15, 30 and 90.

[2] = test system: Leishmania infantum (MHOM/MA (BE)/67) amastigotes; experiment: Follow up experiment: single versus multiple oral administrations in L. infantum infected hamsters; type: in vivo; conditions: hamster, total doses 25, 50 and 100 mg/kg oral, liver, spleen, bone marrow
Experimental: (§2) In a follow up experiment, the same experimental protocol was used to compare the efficacy of oral oleyl phosphocholine (OlPC) at total doses of 25, 50 and 100 mg/kg when given as single or multiple oral administrations (5×5, 10 and 20 mg/kg, respectively).
(§3) Female hamsters (n=60) were intracardially infected with 2×10^7 Leishmania infantum (MHOM/MA (BE)/67) amastigotes on day 0. Treatment started at day+21 post infection for 5 consecutive days once daily with a total dose of […] given as single or multiple oral administrations. Amastigote burdens in the different target organs (liver, spleen, bone-marrow) were determined 10 days after the last treatment (day+35). The organs of individual animals were weighed (except bone-marrow); impression smears were fixed in methanol and stained with Giemsa for microscopic evaluation of the number of amastigotes per cell by counting a minimum of 500 nuclei. The results (FIG. 4) are expressed as Leishman Donovan Units (LDU)=mean number of amastigotes per nucleus×mg organ weight.

[3] = Thermogravimetric analysis (TGA) of OlPC; type: physicochemical; conditions: with 1% of mass loss, heating rate 10° C./min
Experimental: Thermogravimetric Analysis (TGA) measures weight changes in a material as a function of temperature (or time) under a controlled atmosphere. Its principal use includes measurement of a material's thermal stability and composition. The TGA analysis was performed using a HR TGA 2950 (TA Instruments, Leatherhead, UK). Samples (±15 mg) were equilibrated at 50° C. and then heated to 500° C. at a heating rate of 10° C./min and the percentage of weight loss was recorded. The OlPC compound show thermal degradation at 159.27° C. with 1% of mass loss.

[4] = Dynamic vapor sorption, OlPC hygroscopicity; type: physicochemical; conditions: 25° C.
Experimental: Active pharmaceutical ingredients (API) frequently show a propensity to interact with water molecules, leading to absorption of moisture in their bulk structure or adsorption on their surfaces. Such behaviour can critically affect many pharmaceutical properties such as purity, solubility and chemical stability, density, surface area, powder flow, compact ability and crystal form. […] Dynamic vapor sorption (DVS) analyzes determine hygroscopicity profiles using a very small sample (≈15 mg), and provide both qualitative and quantitative information on water uptake.
Water sorption/desorption isotherm of OlPC was determined gravimetrically at 25° C. (SD, 0.1° C.) using a DVS Advantage 1 with a Cahn D200 microbalance (Surface Measurement Systems, London, UK). Between 10 and 20 mg was weighed in the sample cup of the instrument, subjected to a drying step in order to bring the sample to a constant weight and subsequently exposed to increasing relative humidity (RH) (using 10% increments up to 90%). Following the sorption phase, the sample was exposed to a decreasing RH (in steps of 10% until 0% RH). Each step continued until equilibrium was reached (i.e. when the change in mass smaller than 0.002% per minute during at least 10 min) or until 6 h had passed. The mass change was recorded every minute with a resolution of ±0.1 μg.

L. infantum = experiment: Treatment of dogs naturally infected with L. infantum, clinical score; type: in vivo; conditions: 4 mg/kg/day orally 14 days
Experimental: as §1

Water solubility of OlPC = type: physicochemical
Experimental: The wet granulation process for OlPC solid dosage formulation requires that OlPC is solubilised in water. OlPC as a water solubility of 0.2 g/ml, which implies that for each tablet with 50 mg of OlPC at least 250 μl of water per tablet has to be incorporated in the dry powder mixture.

[5] = Compatibility of OlPC with binder in solution; type: physicochemical
Description: The tablets produced presented high levels of friability and high disintegration time. It was observed that the presence of polyvynilpyrrolidone in solution with OlPC induces the formation of an unknown precipitated which indicates the presence of an incompatibility between the two compounds.
Hydroxypropylmethylcellulose was then selected to replace polyvynilpyrrolidone as a binder in the subsequent formulation assays.

[6] = Tolerability in hamsters, follow up experiment; type: in vivo; conditions: hamster, oral, single administrations as high as 100 mg/kg
Experimental: as §2, §3

[7] = test system: Leishmania infantum (MHOM/MA (BE)/67) amastigotes; experiment: Curative efficacy against Leishmania infantum in the hamster model, oral 5 days; type: in vivo; conditions: for Bone marrow % red / Liver % red / Spleen % red: reduction vs VIC; for Bone marrow Mean ± SE of amastigotes per nucleus / Liver Mean ± SE of LDU / Spleen Mean ± SE of LDU: 10 days after last treatment
Experimental: Golden hamsters (female, 75 g) were allocated randomly to 7 groups with 8 animals per group. • G1: vehicle infected control (VIC): 200 μl blank vehicle orally 5 days • G2: MIL-PBS: 5×40 mg/kg (=98.1 μmol/kg) orally for 5 days • G3: MIL-PBS: 5×20 mg/kg (=49.1 μmol/kg) orally for 5 days • G4: OlPC-PBS: 5×42.5 mg/kg (=98.1 μmol/kg) orally for 5 days • G5: OlPC-PBS: 5×21.2 mg/kg (=49.1 μmol/kg) orally for 5 days • G6: OlPC-liposomes: 5×2.4 ml/kg (=98.1 μmol/kg) orally for 5 days • G7: OlPC-liposomes: 5×1.2 ml/kg (=49.1 μmol/kg) orally for 5 days Drinking water and food were available ad libitum throughout the experiment. […] Artificial Infection
Leishmania infantum (MHOM/MA (BE)/67) amastigotes were obtained from the spleen of heavily infected donor hamsters. The total parasite burden was determined on Giemsa-stained smears. Amastigotes in the spleen homogenate were concentrated using two centrifugation steps (low speed (300 rpm) with collection of the supernatant−high speed (4200 rpm) with collection of the pellet). The parasite burdens in the spleen were estimated using the Stauber technique and the amastigote suspension was diluted to prepare the infection inocula for intracardial infection containing 2×10^7 amastigotes/100 μl. At 21 days post infection (=start of treatment), the levels infection were checked in 4 randomly chosen animals by making a smear from a liver biopsy for determination of the parasite burden (cfr. infra).
• Miltefosine was formulated at 20 mg/ml and 10 mg/ml in PBS and stored at room temperature in the dark. A clear transparent solution was obtained. • OlPC-PBS was formulated at 21.25 mg/ml and 10.63 mg/ml in PBS and stored at room temperature in the dark. A clear transparent solution was obtained. • OlPC-liposome formulation was prepared at 18 mg/ml (dosed at 2.4 ml/kg=120 μl/50 gram). The formulation was diluted 2 times in PBS to obtain a OlPC-formulation of 9 mg/ml (dosed at 1.2 ml/kg=[…])) Treatment
Oral treatment started 21 days after infection (dpi) and was continued for 5 consecutive days. Dosing volume was 100 μl per 50 gram BW (bodyweight).
Parasite Burden: amastigote burdens in the different target organs (liver, spleen, bone-marrow) were determined 10 days after the last treatment (i.e. day 35 of the experiment). The organs of individual animals were weighed (except bone-marrow); impression smears were fixed in methanol and stained with Giemsa for microscopic evaluation of the number of amastigotes per cell by counting a minimum of 500 nuclei1. The results are expressed as Leishman Donovan Units (LDU)=mean number of amastigotes per nucleus×mg organ weight. Percentage reduction as compared to vehicle-treated infected control animals (VIC) is used as a measure for drug activity. Particularly for spleen and bone-marrow, the viability of possible residual burdens was assessed using the promastigote transformation assay.

[8] = 49.1 μmol/kg (20 mg/kg) orally for 5 days
[9] = 98.1 μmol/kg (40 mg/kg) orally for 5 days

## CCCCCCCC/C=C\CCCCCCCCOP(=O)([O-])OCC[N+](C)(C)C [OlPC, oleyl phosphocholine]
[1]
  tolerance, side effects: two of the six dogs treated experienced diarrhea during the first week post-treatment, and a third one had diarrhea and 1 episode of vomiting
[2]
  overall parasite suppression levels, single versus multiple administrations: similar
[3]
  thermal degradation temperature: 159.27 °C
[4]; exposed to 90% RH
  water absorbed: 41.67%
[4]; water sorption and desorption profiles
  hygroscopicity: very hygroscopic
L. infantum; day 15 (day 0: 19, range 14-31)
  average clinical score (CS): 12 (range 7-16)
L. infantum; day 30 (day 0: 19, range 14-31)
  average clinical score (CS): 5 (range 1-10)
L. infantum; day 90 (range 0-5; day 0: 19)
  average clinical score (CS): 2
Water solubility of OlPC
  water solubility: 200 mg/mL (≈ 461 mM)
[5]
  compatibility with hydroxypropylmethylcellulose: no such incompatibility was observed
[5]; unknown precipitate formed
  compatibility with polyvinylpyrrolidone in solution: incompatibility
[6]
  tolerability / signs of toxicity: well tolerated

## CCCCCCCCCCCCCCCCOP(=O)([O-])OCC[N+](C)(C)C [Miltefosine]
[7]; [8]
  Bone marrow % red: 39%
  Liver % red: 0%
  Spleen % red: 61%
[7]; 49.1 μmol/kg (20 mg/kg) orally for 5 days, listed as MIL
  Liver % red: no reduction
[7]; 49.1 μmol/kg orally for 5 days
  Bone marrow Mean ± SE of amastigotes per nucleus: 1.0 ± 0.34 amastigotes per nucleus
  Liver Mean ± SE of LDU: 9017 ± 1489 LDU
  Spleen Mean ± SE of LDU: 188 ± 44 LDU
[7]; [9]
  Bone marrow % red: 95%
  Liver % red: 65%
  Spleen % red: 99.2%
[7]; 98.1 μmol/kg (40 mg/kg) orally for 5 days, listed as MIL
  Spleen % red: 99%
[7]; 98.1 μmol/kg orally for 5 days
  Bone marrow Mean ± SE of amastigotes per nucleus: 0.1 ± 0.014 amastigotes per nucleus
  Liver Mean ± SE of LDU: 2764 ± 847 LDU
  Spleen Mean ± SE of LDU: 3.7 ± 1.67 LDU
